The values below come from US9999619B2, “Piperidin-4-yl azetidine derivatives as JAK1 inhibitors” (Incyte Corporation, priority 2010, dated 2018).

The structures appear in SMILES notation. Structures can show the parent of a compound that is named as a salt.

In general, IC50 refers to the midpoint of a concentration-inhibition curve. A lower IC50 goes with inhibition by little substance.

Holding throughout (assay type): biochemical
In test [1] the target is human JAK1 (a.a. 837-1142) (Homo sapiens, UniProt P23458). The experiment in a line: In vitro JAK kinase assay (HTRF, phosphorylation of a biotinylated peptide), JAK1. Conditions: measured at 1 mM ATP. An outline of the steps: (§1)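 N-terminal His-tagged catalytic domains, baculovirus-expressed in insect cells, phosphorylated a biotinylated peptide for 1 hr at room temperature. EDTA stop was followed by SA-APC and Eu-Py20 antibody for 40 minutes, with phosphopeptide read by HTRF.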
For orientation: In TR-FRET formats the signal depends on donor and acceptor labels being close together.

Test [2] has as its target human JAK1 (a.a. 837-1142). The test is described as above. Conditions: ratio of JAK2 IC50 to JAK1 IC50, measured at 1 mM ATP. An outline of the steps: as §1
A further test deals with Jak2 (a.a. 828-1132) (Homo sapiens (Human), UniProt O60674). Put plainly: In vitro JAK kinase assay (HTRF, phosphorylation of a biotinylated peptide), JAK2. The following applies: measured at 1 mM ATP. An outline of the steps: as §1
Sequence of Jak2 (a.a. 828-1132) (O60674 828-1132): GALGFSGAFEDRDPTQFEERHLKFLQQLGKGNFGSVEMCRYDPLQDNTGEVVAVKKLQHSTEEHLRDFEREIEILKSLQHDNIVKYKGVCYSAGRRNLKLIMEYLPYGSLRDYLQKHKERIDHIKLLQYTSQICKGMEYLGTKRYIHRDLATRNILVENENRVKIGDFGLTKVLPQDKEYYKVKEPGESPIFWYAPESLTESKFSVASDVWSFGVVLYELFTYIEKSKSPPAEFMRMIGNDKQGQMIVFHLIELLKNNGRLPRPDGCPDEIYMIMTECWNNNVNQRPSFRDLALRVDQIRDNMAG

For `CN(C)Cc1cc(C#N)cc(C(=O)N2CCC(N3CC(CC#N)(n4cc(-c5ncnc6[nH]ccc56)cn4)C3)CC2)c1` [Example 369, 3-[(4-{3-(cyanomethyl)-3-[4-(7H-pyrrolo[2,3-d]pyrimidin-4-yl)-1H-pyrazol-1-yl]azetidin-1-yl}piperidin-1-yl)carbonyl]-5-[(dimethylamino)methyl]benzonitrile], the IC50 in test [1] was ≤ 5 nM; on Jak2 (a.a. 828-1132) it was > 100 nM. The “IC50 Ratio JAK2/JAK1” value in test [2] was 43.8.

Take `CN(C)Cc1cc(C(=O)N2CCC(N3CC(CC#N)(n4cc(-c5ncnc6[nH]ccc56)cn4)C3)CC2)nc(C(F)(F)F)n1` [Example 370, {1-(1-{[6-[(dimethylamino)methyl]-2-(trifluoromethyl)pyrimidin-4-yl]carbonyl}piperidin-4-yl)-3-[4-(7H-pyrrolo[2,3-d]pyrimidin-4-yl)-1H-pyrazol-1-yl]azetidin-3-yl}acetonitrile]: the IC50 in test [1] is ≤ 5 nM; against Jak2 (a.a. 828-1132), 50 to 100 nM. Also, in test [2], the “IC50 Ratio JAK2/JAK1” value is given as 55.

With `CNCc1cc(C(=O)N2CCC(N3CC(CC#N)(n4cc(-c5ncnc6[nH]ccc56)cn4)C3)CC2)nc(C(F)(F)F)n1` [Example 371, {1-(1-{[6-[(methylamino)methyl]-2-(trifluoromethyl)pyrimidin-4-yl]carbonyl}piperidin-4-yl)-3-[4-(7H-pyrrolo[2,3-d]pyrimidin-4-yl)-1H-pyrazol-1-yl]azetidin-3-yl}acetonitrile trifluoroacetate salt], the IC50 was ≤ 5 nM in test [1] and 50 to 100 nM against Jak2 (a.a. 828-1132). Moreover, the “IC50 Ratio JAK2/JAK1” value in test [2] is reported as 65.3.

With `N#CCC1(n2cc(-c3ncnc4[nH]ccc34)cn2)CN(C2CCN(C(=O)c3cc(CN4CCC4)nc(C(F)(F)F)n3)CC2)C1` [Example 372, {1-(1-{[6-(azetidin-1-ylmethyl)-2-(trifluoromethyl)pyrimidin-4-yl]carbonyl}piperidin-4-yl)-3-[4-(7H-pyrrolo[2,3-d]pyrimidin-4-yl)-1H-pyrazol-1-yl]azetidin-3-yl}acetonitrile], the IC50 in test [1] is ≤ 5 nM; on Jak2 (a.a. 828-1132) it was 10 to 50 nM. Further, the “IC50 Ratio JAK2/JAK1” value in test [2] stood at 67.3.

As to `CCN(CC)Cc1cc(C(=O)N2CCC(N3CC(CC#N)(n4cc(-c5ncnc6[nH]ccc56)cn4)C3)CC2)nc(C(F)(F)F)n1` [Example 373, {1-(1-{[6-[(diethylamino)methyl]-2-(trifluoromethyl)pyrimidin-4-yl]carbonyl}piperidin-4-yl)-3-[4-(7H-pyrrolo[2,3-d]pyrimidin-4-yl)-1H-pyrazol-1-yl]azetidin-3-yl}acetonitrile], the IC50 is ≤ 5 nM in test [1] and 10 to 50 nM on Jak2 (a.a. 828-1132). Moreover, in test [2], the “IC50 Ratio JAK2/JAK1” value worked out at 36.8.

Regarding `CCN(C)Cc1cc(C(=O)N2CCC(N3CC(CC#N)(n4cc(-c5ncnc6[nH]ccc56)cn4)C3)CC2)nc(C(F)(F)F)n1` [Example 374, {1-(1-{[6-{[ethyl(methyl)amino]methyl}-2-(trifluoromethyl)pyrimidin-4-yl]carbonyl}piperidin-4-yl)-3-[4-(7H-pyrrolo[2,3-d]pyrimidin-4-yl)-1H-pyrazol-1-yl]azetidin-3-yl}acetonitrile], the IC50 in test [1] was ≤ 5 nM; at Jak2 (a.a. 828-1132), 10 to 50 nM. The “IC50 Ratio JAK2/JAK1” value in test [2] is recorded as 50.

As for `CN(C)Cc1cc(C(=O)N2CCC(N3CC(CC#N)(n4cc(-c5ncnc6[nH]ccc56)cn4)C3)CC2)cc(C(F)F)c1` [Example 375, {1-(1-{3-(difluoromethyl)-5-[(dimethylamino)methyl]benzoyl}piperidin-4-yl)-3-[4-(7H-pyrrolo[2,3-d]pyrimidin-4-yl)-1H-pyrazol-1-yl]azetidin-3-yl}acetonitrile], the IC50 is ≤ 5 nM in test [1] and 10 to 50 nM at Jak2 (a.a. 828-1132). Moreover, the “IC50 Ratio JAK2/JAK1” value in test [2] is listed as 12.7.

On to `N#CCC1(n2cc(-c3ncnc4[nH]ccc34)cn2)CN(C2CCN(C(=O)c3cc(CN4CC[C@H](F)C4)nc(C(F)(F)F)n3)CC2)C1` [Example 377, {1-(1-{[6-{[(3S)-3-fluoropyrrolidin-1-yl]methyl}-2-(trifluoromethyl)pyrimidin-4-yl]carbonyl}piperidin-4-yl)-3-[4-(7H-pyrrolo[2,3-d]pyrimidin-4-yl)-1H-pyrazol-1-yl]azetidin-3-yl}acetonitrile (trifluoroacetate salt: 4 TFA)], for which the IC50 is ≤ 5 nM in test [1] and 10 to 50 nM against Jak2 (a.a. 828-1132). The “IC50 Ratio JAK2/JAK1” value in test [2] is given as 35.7.

As to `N#CCC1(n2cc(-c3ncnc4[nH]ccc34)cn2)CN(C2CCN(C(=O)c3cc(CN4CC[C@@H](F)C4)nc(C(F)(F)F)n3)CC2)C1` [Example 378, {1-(1-{[6-{[(3R)-3-fluoropyrrolidin-1-yl]methyl}-2-(trifluoromethyl)pyrimidin-4-yl]carbonyl}piperidin-4-yl)-3-[4-(7H-pyrrolo[2,3-d]pyrimidin-4-yl)-1H-pyrazol-1-yl]azetidin-3-yl}acetonitrile (trifluoroacetate salt: 4 TFA)], the IC50 in test [1] is ≤ 5 nM; against Jak2 (a.a. 828-1132), 10 to 50 nM. Further, in test [2], the “IC50 Ratio JAK2/JAK1” value is recorded as 32.7.

Take `N#CCC1(n2cc(-c3ncnc4[nH]ccc34)cn2)CN(C2CCN(C(=O)c3cc(CN4CCC(F)(F)C4)nc(C(F)(F)F)n3)CC2)C1` [Example 379, {1-(1-{[6-[(3,3-difluoropyrrolidin-1-yl)methyl]-2-(trifluoromethyl)pyrimidin-4-yl]carbonyl}piperidin-4-yl)-3-[4-(7H-pyrrolo[2,3-d]pyrimidin-4-yl)-1H-pyrazol-1-yl]azetidin-3-yl}acetonitrile (trifluoroacetate salt: 4 TFA)]: the figures for the IC50 (in test [1]; on Jak2 (a.a. 828-1132)) were ≤ 5 nM and 50 to 100 nM, respectively. The “IC50 Ratio JAK2/JAK1” value in test [2] was 36.9.

Turning to `N#CCC1(n2cc(-c3ncnc4[nH]ccc34)cn2)CN(C2CCN(C(=O)c3cc(CO)nc(C(F)(F)F)n3)CC2)C1` [Example 381, {1-(1-{[6-(hydroxymethyl)-2-(trifluoromethyl)pyrimidin-4-yl]carbonyl}piperidin-4-yl)-3-[4-(7H-pyrrolo[2,3-d]pyrimidin-4-yl)-1H-pyrazol-1-yl]azetidin-3-yl}acetonitrile], the IC50 in test [1] is ≤ 5 nM; against Jak2 (a.a. 828-1132), 10 to 50 nM. Moreover, the “IC50 Ratio JAK2/JAK1” value in test [2] was 20.

Take `CC(C)NCc1cc(C(=O)N2CCC(N3CC(CC#N)(n4cc(-c5ncnc6[nH]ccc56)cn4)C3)CC2)nc(C(F)(F)F)n1` [Example 382, {1-(1-{[6-[(isopropylamino)methyl]-2-(trifluoromethyl)pyrimidin-4-yl]carbonyl}piperidin-4-yl)-3-[4-(7H-pyrrolo[2,3-d]pyrimidin-4-yl)-1H-pyrazol-1-yl]azetidin-3-yl}acetonitrile]: the IC50 in test [1] is ≤ 5 nM; at Jak2 (a.a. 828-1132), 10 to 50 nM. Moreover, the “IC50 Ratio JAK2/JAK1” value in test [2] came out at 26.7.

Take `CCNCc1cc(C(=O)N2CCC(N3CC(CC#N)(n4cc(-c5ncnc6[nH]ccc56)cn4)C3)CC2)nc(C(F)(F)F)n1` [Example 383, {1-(1-{[6-[(ethylamino)methyl]-2-(trifluoromethyl)pyrimidin-4-yl]carbonyl}piperidin-4-yl)-3-[4-(7H-pyrrolo[2,3-d]pyrimidin-4-yl)-1H-pyrazol-1-yl]azetidin-3-yl}acetonitrile]: the IC50 was ≤ 5 nM in test [1] and 10 to 50 nM against Jak2 (a.a. 828-1132). Further, the “IC50 Ratio JAK2/JAK1” value in test [2] came to 30.5.

For `COCCN(C)Cc1cc(C(=O)N2CCC(N3CC(CC#N)(n4cc(-c5ncnc6[nH]ccc56)cn4)C3)CC2)nc(C(F)(F)F)n1` [Example 384, {1-(1-{[6-{[(2-methoxyethyl)(methyl)amino]methyl}-2-(trifluoromethyl)pyrimidin-4-yl]carbonyl}piperidin-4-yl)-3-[4-(7H-pyrrolo[2,3-d]pyrimidin-4-yl)-1H-pyrazol-1-yl]azetidin-3-yl}acetonitrile], the IC50 in test [1] was ≤ 5 nM; against Jak2 (a.a. 828-1132), 50 to 100 nM. Also, the “IC50 Ratio JAK2/JAK1” value in test [2] is 29.6.

With `CN(CCCO)Cc1cc(C(=O)N2CCC(N3CC(CC#N)(n4cc(-c5ncnc6[nH]ccc56)cn4)C3)CC2)nc(C(F)(F)F)n1` [Example 385, {1-(1-{[6-{[(3-hydroxypropyl)(methyl)amino]methyl}-2-(trifluoromethyl)pyrimidin-4-yl]carbonyl}piperidin-4-yl)-3-[4-(7H-pyrrolo[2,3-d]pyrimidin-4-yl)-1H-pyrazol-1-yl]azetidin-3-yl}acetonitrile], the IC50 in test [1] was ≤ 5 nM; against Jak2 (a.a. 828-1132), 50 to 100 nM. Moreover, the “IC50 Ratio JAK2/JAK1” value in test [2] came to 28.9.

With `CCCOC(=O)N1CCC(N2CC(CC#N)(n3cc(-c4ncnc5[nH]ccc45)cn3)C2)CC1` [Example 386, Propyl 4-{3-(cyanomethyl)-3-[4-(7H-pyrrolo[2,3-d]pyrimidin-4-yl)-1H-pyrazol-1-yl]azetidin-1-yl}piperidine-1-carboxylate], the IC50 in test [1] was ≤ 5 nM; on Jak2 (a.a. 828-1132), 10 to 50 nM. The “IC50 Ratio JAK2/JAK1” value in test [2] was determined as 7.7.

As for `N#CCC1(n2cc(-c3ncnc4[nH]ccc34)cn2)CN(C2CCN(C(=O)OCC3CCC3)CC2)C1` [Example 387, Cyclobutylmethyl 4-{3-(cyanomethyl)-3-[4-(7H-pyrrolo[2,3-d]pyrimidin-4-yl)-1H-pyrazol-1-yl]azetidin-1-yl}piperidine-1-carboxylate], the IC50 in test [1] is ≤ 5 nM; against Jak2 (a.a. 828-1132), 10 to 50 nM. Besides, in test [2], the “IC50 Ratio JAK2/JAK1” value was 9.7.

For `CCOC(=O)N1CCC(N2CC(CC#N)(n3cc(-c4ncnc5[nH]ccc45)cn3)C2)CC1` [Example 388, ethyl 4-{3-(cyanomethyl)-3-[4-(7H-pyrrolo[2,3-d]pyrimidin-4-yl)-1H-pyrazol-1-yl]azetidin-1-yl}piperidine-1-carboxylate], the results for the IC50 (in test [1]; against Jak2 (a.a. 828-1132)) were 5 to 20 nM and 10 to 50 nM, respectively. For the same compound, the “IC50 Ratio JAK2/JAK1” value in test [2] came out at 7.6.
